The subject of data set [1] is HIV-1. Particulars: in vivo model of HIV-1 infection; cited from earlier work.
Data set [2] deals with primary rat hippocampal neurons. Particulars: primary rat hippocampal and dorsal root ganglion neurons; cited from earlier work.
Data set [3] concerns the target MLK3 (Rattus norvegicus (Rat), UniProt Q66HA1). Particulars: primary rat neurons; cited from earlier work.
In data set [4] the target is Rab7 (Homo sapiens (Human), UniProt P51149). The data set is described as follows: Proteomic analyses of human monocyte-derived macrophages (Rab7). It counts as cell-based. The following applies: HIV-1 infected MDM. From the text:
FIG. 7 (top) is a schematic of a proteomic analysis.
FIG. 8 is a photograph from a Western blot validation for Rab7a. Rab7A (Protein KB) is a key regulator in endolysosomal trafficking. It governs early-to-late endosomal maturation, microtubule minus-end as well as plus-end directed endosomal migration and positioning, and endosome-lysosome transport.
(§1) Higher plasma drug levels correspond to lowest viral load.

For data set [5], the target named is Tat (Human immunodeficiency virus type 1 group M subtype B (isolate HXB2) (HIV-1), UniProt P04608). The data set is described as follows: Tat injection model, synapse protection and neuroinflammation (FIGS. 10-24). It counts as in vivo. Here is the method:
FIG. 19 is a group of photographs showing IHC synapse protection. Map2 staining 28 days post injection at the injection site. Pre/continuous treatment with Compound AH at 10 mg/kg i.p. q 12, 9 μg of Tat injected at 80 nL/min. The same Compound AH/Tat treatment paradigm was used in FIGS. 20-24.
(FIGS. 10-24). The compound is a selectively non-selective inhibitor for a subset of kinases that have pathogenetic roles for activation of immune effector cells with damage to target cells (neurons, myocytes, pancreatic acinar cells) in both central and peripheral degenerative diseases with autoimmune components.

The subject of data set [6] is MOG35-55 EAE mice. Description: MOG35-55 EAE model. Format: in vivo. From the text:
Hippocampal synaptic injury in MOG35-55 EAE mice correlates with microglial activation and may occur independent of myelin loss. […] Protective effects in EAE hippocampal gray matter appear dissociable from those in the spinal cord. Many interventions targeting microglial function affect EAE motor deficits and the spinal cord inflammation that those largely reflect.

Data set [7] has as its system Rab 7 late endosomal compartment. The data set is described as follows: Rab studies: nanoART drug levels in endosomal compartments. It counts as cell-based. Here is the method: FIG. 25 is a graph showing that Compound AH is able to sustain the presence of atazanavir/ritonavir nanoART in late endosomes. Concentrations of 1 and 10 ng/mL of Compound AH increases drug levels for more than 10 days in these compartments. This is significant and reproducible. […] Thus more of the drug is present in there for longer time periods, boosting efficacy and leading to reduction of residual virus.
The Rab 7 compartment increased marked in size and expression (protein content) as a result of HIV infection. […] That is also where anti-HIV proteases work and where their sites of actions lie. […] This signals that the combination has eliminated or nearly so, the ability of virus to assemble in this compartment.

Data set [8] has as its system Human monocytes. The data set is described as follows: Tat-assays: Tat-induced cytokine and chemokine production in human monocytes (Luminex). It counts as cell-based. The following applies: 50 nM HIV-1 Tat, 8 hours. Here is the method: Human monocytes were isolated from freshly collected whole blood using CD14 immunomagnetic beads (Miltenyi-Biotec). Cells were then plated in 24-well plates at 5×10^4 cells/well in RPMI-1640 culture medium supplemented with 10% fetal bovine serum (FBS). The specified compounds were then added to the cultures at the indicated concentrations (100, […], 1000 nM); in control wells, no compound was added. 30 min later, HIV-1 Tat was added to a final concentration of 50 nM the cells were incubated for 8 hours (in control wells, nothing was added [NT]). Cell supernatants were then collected, centrifuged 15 min at 13000 rpm to remove debris, transferred to new microcentrifuge tubes and frozen at −20° C. A Luminex bead array assay was then performed, for the indicated chemokines and cytokines. Results were measured in triplicate or quadruplicate, and data are presented as mean values; error bars denote the standard deviation. Note that similar results were obtained with monocytes derived from multiple (n>5) different donors, as well as in terminally differentiated monocyte-derived macrophages (data not shown due to space limitations). *:p<0.05; one-way ANOVA with Bonferroni's correction (when compared to Tat only control). See FIG. 11 (tat-induced cytokine production) and FIG. 12 (tat-induced chemokine production).

For data set [9], the system named is HIV-1 ADA. Description: HIV-1 infection model in humanized mice. Format: in vivo. Particulars: nanoART 6 weeks s.c.; Compound AH 10 mg/kg i.p. once daily during final two weeks. As to the method:
The MLK inhibitor Compound AH was used in test with an animal model for HIV-1 infection. Specifically, 22 week old humanized mice (NOD/scidIL-2Rγc^null (NSG) mice stably engrafted with human CD34+ hematopoeitic stem cells were infected with HIV-1 ADA (Gorantla et al., J. Virol. 81:2700-2712, 2007). The mice were then treated with the nanoformulated antiretroviral therapy comprising atazanavir and ritonavir (nanoART) for 6 weeks by s.c. injections (6×/week). During the final two weeks, the animals also received the MLK-3 inhibitor Compound AH by once daily injection (10 mg/kg i.p.). Viral RNA load was measured over time in plasma from these mice, and productively infected cells were counted in tissues harvested from animals at sacrifice (including lymph node (FIG. 4) and spleen (FIG. 5)).
Further, starting at 10 weeks post infection, when the mice were at the peak of their viral load (VL) the MLK-3 inhibitor Compound AH was administered daily and the nanoART was administered weeks for three weeks. Peripheral VL ratio of human CD4+ and CD8+ T lymphocyte, drug levels in plasma and organs and pathological changes in lymphoid and brain tissues were investigated.
as §1

The target of data set [10] is MLK3 (Homo sapiens (Human), UniProt Q16584). Description: Radiometric filter plate MLK3 assay. It counts as biochemical. Particulars: 2 μM cold ATP (Km), 1 μM inactive MKK7b, twenty minute incubation; read-out: MK3 IC50. Here is the method:
After a twenty minute incubation, the reactions were washed through filter plates and read on a scintillation counter. Results are shown in Table 9 below, in which +++ indicates ≤0.1 μM, ++ indicates >0.1 μM and ≤1 μM, and + indicates >1 μM.

The nature of data set [11]: Standard murine pharmacokinetic model (plasma and brain AUC). Format: in vivo. The following applies: CL57 BL/6 mice, single IV injection 10 mg/kg, brain homogenate. As to the method: Several compounds disclosed herein were evaluated in a standard murine pharmacokinetic model. […] Three mice in each group were used for blood and brain collection at each time point. […] The brain of each animal was collected after the final blood collection. The whole tissue was harvested, excised and rinsed by saline, dried by filter paper, and then placed into one tube per tissue per animal. All samples were stored at −20° C. until bioanalysis. Compound concentrations in plasma and brain homogenate were determined using a high performance liquid chromatography/mass spectrometry (HPLC/MS/MS) method (Agilent 1100 series HPLC, AB Inc. API4000 triple-quadrupole with an ESI interface and Analyst 1.4 software). Results in the form of area under the time-versus-concentration curve (AUC) are given below in Table 10.

The text below walks through data of US10485800B2, “Mixed lineage kinase inhibitors for HIV/AIDS therapies” (UNIVERSITY OF ROCHESTER, priority 2012, dated 2019).

Structures are written as SMILES.

MLK3 (Homo sapiens (Human), UniProt Q16584), sequence (Q16584 whole entry): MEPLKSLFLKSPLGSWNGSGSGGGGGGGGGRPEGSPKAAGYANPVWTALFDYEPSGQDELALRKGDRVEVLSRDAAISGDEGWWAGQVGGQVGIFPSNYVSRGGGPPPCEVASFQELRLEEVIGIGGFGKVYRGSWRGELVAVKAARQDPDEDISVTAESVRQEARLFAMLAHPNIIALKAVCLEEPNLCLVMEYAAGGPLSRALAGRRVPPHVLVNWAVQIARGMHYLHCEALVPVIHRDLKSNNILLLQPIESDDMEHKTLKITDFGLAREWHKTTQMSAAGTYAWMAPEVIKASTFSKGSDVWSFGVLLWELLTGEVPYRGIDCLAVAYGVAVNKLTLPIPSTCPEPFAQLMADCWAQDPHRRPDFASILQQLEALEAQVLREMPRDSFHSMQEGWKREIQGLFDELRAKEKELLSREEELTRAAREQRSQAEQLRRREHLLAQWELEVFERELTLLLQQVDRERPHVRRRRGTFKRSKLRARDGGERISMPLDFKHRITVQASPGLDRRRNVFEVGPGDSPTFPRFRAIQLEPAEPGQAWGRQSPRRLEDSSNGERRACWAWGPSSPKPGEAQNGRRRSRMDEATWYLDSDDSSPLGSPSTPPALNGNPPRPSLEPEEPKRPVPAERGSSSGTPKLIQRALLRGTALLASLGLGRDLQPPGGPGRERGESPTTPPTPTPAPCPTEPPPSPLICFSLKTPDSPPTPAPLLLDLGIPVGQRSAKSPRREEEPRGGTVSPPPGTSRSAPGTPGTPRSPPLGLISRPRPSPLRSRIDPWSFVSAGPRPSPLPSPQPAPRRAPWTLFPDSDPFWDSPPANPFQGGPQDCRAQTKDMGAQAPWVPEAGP
Tat, sequence (P04608 whole entry, looked up): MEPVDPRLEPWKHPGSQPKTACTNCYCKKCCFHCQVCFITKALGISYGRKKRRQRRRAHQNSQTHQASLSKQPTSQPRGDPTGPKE
MLK3 (Rattus norvegicus (Rat), UniProt Q66HA1), sequence (Q66HA1 whole entry): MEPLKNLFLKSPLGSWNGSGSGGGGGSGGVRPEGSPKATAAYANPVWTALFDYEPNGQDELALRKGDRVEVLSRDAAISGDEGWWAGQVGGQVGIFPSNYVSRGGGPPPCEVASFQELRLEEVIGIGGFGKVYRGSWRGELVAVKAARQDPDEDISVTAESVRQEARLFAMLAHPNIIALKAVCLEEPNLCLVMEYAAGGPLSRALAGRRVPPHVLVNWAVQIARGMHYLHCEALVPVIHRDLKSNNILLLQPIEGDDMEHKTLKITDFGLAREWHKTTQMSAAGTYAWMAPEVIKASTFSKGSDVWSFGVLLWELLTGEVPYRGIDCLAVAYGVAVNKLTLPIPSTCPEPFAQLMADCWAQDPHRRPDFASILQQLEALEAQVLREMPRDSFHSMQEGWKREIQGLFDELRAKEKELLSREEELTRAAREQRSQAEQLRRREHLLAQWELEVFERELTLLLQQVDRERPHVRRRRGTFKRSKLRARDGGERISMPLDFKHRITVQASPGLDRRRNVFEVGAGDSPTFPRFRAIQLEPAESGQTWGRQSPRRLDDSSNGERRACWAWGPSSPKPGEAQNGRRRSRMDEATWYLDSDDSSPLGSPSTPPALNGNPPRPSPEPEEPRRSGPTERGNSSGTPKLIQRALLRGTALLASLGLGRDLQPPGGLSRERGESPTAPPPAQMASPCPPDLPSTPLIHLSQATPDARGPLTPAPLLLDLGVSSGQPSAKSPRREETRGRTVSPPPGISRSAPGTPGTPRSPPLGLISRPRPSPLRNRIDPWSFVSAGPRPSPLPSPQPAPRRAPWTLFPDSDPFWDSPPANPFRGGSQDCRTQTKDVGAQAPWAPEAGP

Regarding `CCSCc1ccc2c(c1)c1c3c(c4c5cc(CSCC)ccc5n5c4c1n2[C@H]1C[C@](O)(C(=O)OC)[C@]5(C)O1)CNC3=O` (relative stereo) [CEP1347, 3,9-bis[(ethylthio)methyl]-(8R*,9S*, 11S*)-(−)-9-hydroxy-9-methoxycarbonyl-8-methyl-2,3,9,10-tetrahydro-8,11-epoxy-1H,8H, 11H-2,7b,11a-triazadibenzo(a,g)cycloocta(cde)trinden-1-one], the neuroprotection in vivo result in data set [1] was “neuroprotective”. Also, in data set [2], the “protection of neurons from lethal effects of HIV-1 gp120” value is on record as “can protect primary rat hippocampal neurons as well as dorsal root ganglion neurons”. Also, the “Tat and gp120 induced autophosphorylation of MLK3” value in data set [3] is “abolished”.

As for `CN1CCN(Cc2ccc(-c3cnc4[nH]cc(-c5ccc6[nH]ccc6c5)c4c3)cc2)CC1` [Compound AH], the Rab7 protein regulation result in data set [4] is listed as “induced the RAS-related GTP-binding protein Rab7”. For the same molecule, in [5] (Compound AH 10 mg/kg i.p. q 12, 9 μg of Tat injected), the “neuroprotection to the synapse” value is reported as “provides neuroprotection to the synapse”. Also, in data set [5] (FIGS. 10-24), the neuroinflammation entry is recorded as “anti-neuroinflammatory”. Also, in [6] (EAE hippocampus), the “microglial activation in EAE hippocampus” value is listed as “attenuates microglial activation” and the “synaptic structure in EAE hippocampus” value is “protects synaptic structure”. Also, the EAE motor deficits entry in [6] (treatment at onset of clinical disease) was “no effect on EAE motor deficits”. Further, in [7] (1 and 10 ng/mL of Compound AH, FIG. 25), the “time for which atazanavir/ritonavir nanoART drug levels in late endosomes are increased” value is “more than 10 days”. Further, the “drug levels in Rab compartments” value in data set [7] (Compound AH induction) is recorded as “general increase in drug levels was seen in all Rab compartments”. Besides, the tat-induced cytokine production entry in data set [8] (FIG. 11) was “blocks tat-induced cytokine production”. Further, the tat-induced chemokine production result in [8] (FIG. 12) is “blocks tat-induced chemokine production”. Also, the HIV-1 viral load result in data set [9] was “modest reducing in HIV-1 viral load”.

Consider `Nc1ncc(-c2cnc3[nH]cc(-c4ccc5[nH]ccc5c4)c3c2)cn1` [Example 9, 5-(3-(1H-indol-5-yl)-1H-pyrrolo[2,3-b]pyridin-5-yl)pyrimidin-2-amine], for which the concentration for half-maximal inhibition (IC50) in data set [10] was less than 100 nM. In data set [11], the “AUC Brain” value was “+ (+ indicates ≥500)”.

For the molecule `COc1cc(-c2cnc3[nH]cc(-c4cnc(N)nc4)c3c2)cc(OC)c1OC` [Example 17, 5-(5-(3,4,5-trimethoxyphenyl)-1H-pyrrolo[2,3-b]pyridin-3-yl)pyrimidin-2-amine], in data set [10], the IC50 is less than 100 nM. Besides, the “AUC Brain” value in data set [11] is reported as “− (− indicates <500)”.

For `COc1cc(-c2cnc3[nH]cc(-c4ccc(N)nc4)c3c2)cc(OC)c1OC` [Example 18, 5-(5-(3,4,5-trimethoxyphenyl)-1H-pyrrolo[2,3-b]pyridin-3-yl)pyridin-2-amine], in data set [10], the IC50 was less than 100 nM. In addition, the “AUC Brain” value in data set [11] is given as “− (− indicates <500)”.

The term IC50 denotes the point on the concentration scale where inhibition reaches its midpoint.
